Literature values in patent publication US20230330126A1, “MODIFIED ADENOSINE NUCLEOSIDE FOR USE IN THE TREATMENT OF VIRAL INFECTIONS” (priority 2020, published 2023).

Legend:
[1] = animal and human studies

| half-life [h] | SMILES | efficacy compared with theophylline [1] | tolerability profile compared with theophylline [1] |
| --- | --- | --- | --- |
|  | Cn1c(=O)c2c(ncn2CC2OCCO2)n(C)c1=O [doxofylline, Doxofylline] | comparable efficacy to that of theophylline | better tolerability profile, with significantly fewer side effects |
| 15 | O=c1[nH]cnc2c1ncn2[C@@H]1O[C@H](CO)[C@@H](O)[C@H]1O [inosine, Inosine] |  |  |
